Results as given in EP3325465B1, “PESTICIDALLY ACTIVE PYRAZOLE DERIVATIVES” (Syngenta Participations AG, priority 2015, dated 2017).

Key:
Format in all cases: in vivo
[1] = tested on: Diabrotica balteata, (Corn root worm); test: Diabrotica balteata maize sprout spray test, L2 larvae; conditions: 96 h, application rate of 200 ppm, 4 days after infestation, L2 larvae, read-out: mortality
From the text: (§1) The pesticidal/insecticidal properties of the compounds according to embodiments 1 or 2 can be illustrated via the following tests: Spodoptera littoralis (Egyptian cotton leaf worm) • Cotton leaf discs were placed onto agar in 24-well microtiter plates and sprayed with aqueous test solutions prepared from 10'000 ppm DMSO stock solutions. After drying the leaf discs were infested with five L1 larvae. […] Plutella xylostella (Diamond back moth): 24-well microtiter plates with artificial diet were treated with aqueous test solutions prepared from 10'000 ppm DMSO stock solutions by pipetting. After drying, the plates were infested with L2 larvae (10 to 15 per well). The samples were assessed for mortality and growth inhibition in comparison to untreated samples 5 days after infestation. […] Diabrotica balteata, (Corn root worm) • Maize sprouts placed onto an agar layer in 24-well microtiter plates were treated with aqueous test solutions prepared from 10'000 ppm DMSO stock solutions by spraying. After drying, the plates were infested with L2 larvae (6 to 10 per well). […] Thrips tabaci (Onion thrips): Sunflower leaf discs were placed on agar in 24-well microtiter plates and sprayed with aqueous test solutions prepared from 10'000 ppm DMSO stock solutions. After drying the leaf discs were infested with a thrips population of mixed ages. The samples were assessed for mortality 6 days after infestation. […] Tetranychus urticae (Two-spotted spider mite): Bean leaf discs on agar in 24-well microtiter plates were sprayed with aqueous test solutions prepared from 10'000 ppm DMSO stock solutions. After drying the leaf discs were infested with a mite population of mixed ages. The samples were assessed for mortality on mixed population (mobile stages) 8 days after infestation. […] Euschistus heros (Neotropical Brown Stink Bug): • Two weeks old soybean plants were sprayed in a turn table spray chamber with the diluted spray solutions. After drying 2 soybean seeds were added and plants were infested with 10 N2 nymphs of the neotropical brown stink bug Euschistus heros in plastic test boxes. The samples were assessed for mortality in comparison to untreated samples 5 days after infestation. • The following compounds gave at least 80% mortality of Euschistus heros at an application rate of 12.5 ppm: Compounds 3 , 4 , 8 , 39 , 43 , 44 , 46 , 75 , 76 , 77 , 78 , 79 , 80 , 81 , 82 , 88 , 90 , 93 and 95 . Myzus persicae (Green peach aphid): Sunflower leaf discs were placed on agar in a 24-well microtiter plate and sprayed with test solutions at an application rate of 200 ppm. After drying, the leaf discs were infested with an aphid population of mixed ages. After an incubation period of 6 DAT, samples were checked for mortality. The following compounds gave at least 50% mortality of Myzus persicae: Compounds 3 , 4 , 8 , 43 , 44 , 75 , 76 , 77 , 80 , 81 , 90 and 92 . Myzus persicae (Green peach aphid): • Test compounds were applied by pipette into 24 well plates and mixed with Sucrose solution. Application rate: 12.5ppm. The plates were closed with a stretched parafilm. A plastic stencil with 24 holes is placed onto the plate and infested pea seedlings were placed directly on the Parafilm. The infested plate is closed with a gel blotting paper and another plastic stencil and then turned upside down. […]

[2] = tested on: Plutella xylostella (Diamond back moth); test: Plutella xylostella artificial diet test, L2 larvae; conditions: 120 h, application rate of 200 ppm, mortality and growth inhibition 5 days after infestation
From the text: as §1

[3] = tested on: Spodoptera littoralis (Egyptian cotton leaf worm); test: Spodoptera littoralis cotton leaf disc spray test, L1 larvae; conditions: foliar, 72 h, application rate of 200 ppm, 3 days after infestation, L1 larvae, read-out: mortality
From the text: as §1

[4] = tested on: Tetranychus urticae (Two-spotted spider mite); test: Tetranychus urticae bean leaf disc spray test; conditions: foliar, 192 h, application rate of 200 ppm, mortality on mixed population (mobile stages) 8 days after infestation
From the text: as §1

[5] = tested on: Thrips tabaci (Onion thrips); test: Thrips tabaci sunflower leaf disc spray test; conditions: foliar, 144 h, application rate of 200 ppm, mortality 6 days after infestation, mixed ages
From the text: as §1

Structure (SMILES)	mortality at 200 ppm [1] [%]	pest or weed control at 200 ppm [2] [%]	mortality at 200 ppm [3] [%]	pest or weed control at 200 ppm [4] [%]	pest or weed control at 200 ppm [5] [%]
Cn1nc(C(F)(F)C(F)(F)F)c(C(F)(F)F)c1-c1noc(-c2ccc(Cl)c(C(=O)NC3CC3)c2)n1 [Compound 9, 2-chloro-N-cyclopropyl-5-[3-[2-methyl-5-(1,1 ,2,2,2-pentafluoroethyl)-4-(trifluoromethyl)pyrazol-3-yl]-1,2,4-oxadiazol-5-yl]benzamide]	≥ 80	–	–	–	–
Cn1nc(C(F)(F)C(F)(F)F)c(C(F)(F)F)c1-c1nc(-c2ccc(Cl)c(C(=O)NC3CC3)c2)no1 [Compound 21, 2-chloro-N-cyclopropyl-5-[5-[2-methyl-5-(1,1,2,2,2-pentafluoroethyl)-4-(trifluoromethyl)pyrazol-3-yl]-1,2,4-oxadiazol-3-yl]benzamide]	–	≥ 80	–	–	–
Cn1nc(C(F)(F)C(F)(F)F)c(C(F)(F)F)c1-c1ncn(-c2ccc(Cl)c(C(=O)NC3CC3)c2)n1 [Compound 35, 2-chloro-N-cyclopropyl-5-[3-[2-methyl-5-(1,1,2,2,2-pentafluoroethyl)-4-(trifluoromethyl)pyrazol-3-yl]-1,2,4-triazol-1-yl]benzamide]	–	≥ 80	≥ 80	–	–
Cn1nc(C(F)(F)C(F)(F)F)c(C(F)(F)F)c1-c1ncc(-c2ccc(Cl)c(C(=O)NC3CC3)c2)s1 [Compound 47, 2-chloro-N-cyclopropyl-5-[2-[2-methyl-5-(1,1 ,2,2,2-pentafluoroethyl)-4-(trifluoromethyl)pyrazol-3-yl]thiazol-5-yl]benzamide]	≥ 80	≥ 80	≥ 80	–	–
Cn1nc(C(F)(F)C(F)(F)F)c(C(F)(F)F)c1-c1csc(-c2ccc(Cl)c(C(=O)NC3CC3)c2)n1 [Compound 49, 2-chloro-N-cyclopropyl-5-[4-[2-methyl-5-(1,1 ,2,2,2-pentafluoroethyl)-4-(trifluoromethyl)pyrazol-3-yl]thiazol-2-yl]benzamide]	≥ 80	≥ 80	≥ 80	–	–
Cn1nc(C(F)(F)C(F)(F)F)c(C(F)(F)F)c1-c1nc(-c2ccc(Cl)c(C(=O)NC3CC3)c2)cs1 [Compound 53, 2-chloro-N-cyclopropyl-5-[2-[2-methyl-5-(1,1 ,2,2,2-pentafluoroethyl)-4-(trifluoromethyl)pyrazol-3-yl]thiazol-4-yl]benzamide]	–	≥ 80	–	–	–
Cn1nc(C(F)(F)C(F)(F)F)c(C(F)(F)F)c1-c1c[nH]c(-c2ccc(Cl)c(C(=O)NC3(C#N)CC3)c2)n1 [Compound 70, 2-chloro-N-(1-cyanocyclopropyl)-5-[4-[2-methyl-5-(1,1,2,2,2-pentafluoroethyl)-4-(trifluoromethyl)pyrazol-3-yl]-1H-imidazol-2-yl]benzamide]	–	≥ 80	–	–	–
Cn1nc(C(F)(F)C(F)(F)F)c(C(F)(F)F)c1-c1cc(-c2ccc(Cl)c(C(=O)NC3CC3)c2)[nH]n1 [Compound 73, 2-chloro-N-cyclopropyl-5-[3-[2-methyl-5-(1,1,2,2,2-pentafluoroethyl)-4-(trifluoromethyl)pyrazol-3-yl]-1H-pyrazol-5-yl]benzamide]	–	–	≥ 80	≥ 80	–
Cn1nc(C(F)(F)C(F)(F)F)c(C(F)(F)F)c1-c1cc(-c2ccc(Cl)c(C(=O)NCCC(F)(F)F)c2)on1 [Compound 83, 2-chloro-5-[3-[2-methyl-5-(1,1,2,2,2-pentafluoroethyl)-4-(trifluoromethyl)pyrazol-3-yl]isoxazol-5-yl]-N-(3,3,3-trifluoropropyl)benzamide]	≥ 80	≥ 80	≥ 80	–	≥ 80
Cn1nc(C(F)(F)C(F)(F)F)c(C(F)(F)F)c1-c1cc(-c2ccc(Cl)c(C(=O)Nc3ccc(Cl)cc3)c2)on1 [Compound 85, 2-chloro-N-(4-chlorophenyl)-5-[3-[2-methyl-5-(1,1,2,2,2-pentafluoroethyl)-4-(trifluoromethyl)pyrazol-3-yl]isoxazol-5-yl]benzamide]	–	–	–	≥ 80	–
